Source: article PMC5711939, “The rumen microbiome: an underexplored resource for novel antimicrobial discovery” (NPJ Biofilms and Microbiomes, 2017)
Values after ≈ are worked out from the molar mass of the structure shown.

Tests used:
[1] = tested on: A. baumanii; assay: microbe, parasite or virus in culture; conditions: Acinetobacter baumannii, strain Q12-0867; Sensitive; cation adjusted MHB, 18–24 h
Description: (§1) Peptides dissolved in sterile distilled water and comparator antibiotics dissolved in the appropriate solvents[38] were added to sterile U-bottom polypropylene 96-well microplates at desired concentrations.

[2] = tested on: C. jejuni; assay: microbe, parasite or virus in culture; conditions: Campylobacter jejuni
Description: as §1

[3] = tested on: Ent. faecalis JH2-2; assay: microbe, parasite or virus in culture; conditions: Enterococcus faecalis, JH22
Description: as §1

[4] = tested on: K. pneumoniae; assay: microbe, parasite or virus in culture; conditions: Klebsiella pneumoniae, cation adjusted MHB, 18–24 h
Description: as §1

[5] = tested on: List. monocytogenes NCTC 11994; assay: microbe, parasite or virus in culture; conditions: Listeria monocytogenes, NCTC11994
Description: as §1

[6] = tested on: P. aeruginosa (CF); assay: microbe, parasite or virus in culture; conditions: Pseudomonas aeruginosa, cation adjusted MHB, 18–24 h
Description: as §1

[7] = tested on: S. aureus; assay: microbe, parasite or virus in culture; conditions: Staphylococcus aureus
Description: as §1

[8] = tested on: Sal. typhimurium SL1344; assay: microbe, parasite or virus in culture; conditions: Salmonella enterica, TYPHIMURIUM
Description: as §1

[9] = tested on: E. coli K12; assay: MIC, broth microdilution; type: cell-based, Escherichia coli; conditions: Escherichia coli; strain K12; cation adjusted MHB, 18–24 h; read-out: MIC
Description: as §1

[10] = tested on: E. coli K12; assay: Time kill kinetics; type: cell-based, Escherichia coli; conditions: at 3 h
Description: Assessment of the bactericidal activity of peptides and comparator antibiotics was performed as previously described[39] using exponential-phase cultures of pathogens grown in MHB ([…]). Peptides were added at concentrations 3 times their MIC values. Experiments were performed in quadruplicates, and CFU/ml was calculated at different time points after over overnight incubation.

O=C(O)c1cn(C2CC2)c2cc(N3CCNCC3)c(F)cc2c1=O [Cip, Ciprofloxacin, reference compound]
MIC [1]: 0.25 µg/mL (≈ 0.754 µM) | MIC ([2]; ATCC33292): 0.12 µg/mL (≈ 0.362 µM) | MIC ([2]; NCTC11161): 0.5 µg/mL (≈ 1.51 µM) | MIC [3]: 64 µg/mL (≈ 193 µM) | MIC ([4]; ATCC700603, strain ATCC 700603, SHV-18): 0.25 µg/mL (≈ 0.754 µM) | MIC ([4]; NCTC13442, strain NCTC 13442, OXA-48): 1 µg/mL (≈ 3.02 µM) | MIC ([4]; strain ID not given, Sensitive): 0.03 µg/mL (≈ 0.0905 µM) | MIC ([4]; strain Q14-0285, VIM): 32 µg/mL (≈ 96.6 µM) | MIC [5]: 64 µg/mL (≈ 193 µM) | MIC ([6]; ATCC27853, strain ATCC 27853, Sensitive): 0.25 µg/mL (≈ 0.754 µM) | MIC ([6]; strain PA01): 0.5 µg/mL (≈ 1.51 µM) | MIC ([6]; strain Q12-0535, Sensitive): 0.06 µg/mL (≈ 0.181 µM) | MIC ([6]; strain Q12-0581, IMI, MER): 2 µg/mL (≈ 6.04 µM) | MIC ([6]; strain Q12-0758, CAZ, IMI, MER): 2 µg/mL (≈ 6.04 µM) | MIC ([6]; strain Q14-0208, CAZ, IMI, MER): 4 µg/mL (≈ 12.1 µM) | MIC ([6]; strain Q14-0890, CAZ, IMI, MER): 4 µg/mL (≈ 12.1 µM) | MIC [7]: > 256 µg/mL | MIC ([7]; ATCC29213, strain ATCC 29213, Sensitive, cation adjusted MHB, 18–24 h): 0.25 µg/mL (≈ 0.754 µM) | MIC ([7]; MRSA, strain EMRSA-15, resistances MRSA, Cip, cation adjusted MHB, 5 × 10^5 CFU/ml, 18–24 h): > 256 µg/mL | MIC ([7]; MRSA, strain Q14-0320, cation adjusted MHB, 18–24 h): 64 µg/mL (≈ 193 µM) | MIC ([7]; MRSA, strain Q14-0325, cation adjusted MHB, 18–24 h): 0.25 µg/mL (≈ 0.754 µM) | MIC ([7]; MRSA, strain Q14-0352, cation adjusted MHB, 18–24 h): 0.5 µg/mL (≈ 1.51 µM) | MIC ([7]; MRSA, strain Q14-0390, cation adjusted MHB, 18–24 h): 64 µg/mL (≈ 193 µM) | MIC ([7]; MRSA|NCTC12493, strain NCTC 12493, MRSA, cation adjusted MHB, 18–24 h): 0.25 µg/mL (≈ 0.754 µM) | MIC [8]: 0.12 µg/mL (≈ 0.362 µM) | MIC [9]: 0.06 µg/mL (≈ 0.181 µM) | Bactericidal activity (reduction in viable count) [10]: > 4 log10 CFU/ml
